Laboratory results reported in patent US20230031406A1, “COMPOUNDS AND COMPOSITIONS FOR TREATING CONDITIONS ASSOCIATED WITH NLRP ACTIVITY” (Novartis AG, priority 2018, published 2023).

Test system: PMA-differentiated THP-1 cells
Assay: IL-1β production in PMA-differentiated THP-1 cells stimulated with gramicidin (hTHP-1 assay containing 2% fetal bovine serum; Procedures 1 and 2)
Type: cell-based, human
Conditions: Homo sapiens, THP-1, Table B2; 2% fetal bovine serum; class symbols; read-out: hTHP-1 IC50
How it was run: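 IL-1β release from PMA-differentiated THP-1 macrophage-like cells was triggered by 5 μM gramicidin for 2 h after 1 h compound exposure, then measured by HTRF.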

Row | Structure (SMILES) | IC50
1 | CC(C)(O)c1csc(S(N)(=O)=NC(=O)Nc2cc(CC(F)(F)F)nc3c2CCC3)c1 (single isomer, unassigned) [Compound 607b, (R) or (S)-4-(2-Hydroxypropan-2-yl)-N′-((2-(2,2,2-trifluoroethyl)-6,7-dihydro-5H-cyclopenta[b]pyridin-4-yl)carbamoyl) thiophene-2-sulfonimidamide] | 1 to 5 µM
2 | Cc1c(C2CC2)nc(C2CC2)c(C)c1NC(=O)N=S(N)(=O)c1cc(C(C)(C)O)cs1 (single isomer, unassigned) [Compound 612b, (R) or (S)-N′-((2,6-dicyclopropyl-3,5-dimethylpyridin-4-yl)carbamoyl)-4-(2-hydroxypropan-2-yl)thiophene-2-sulfonimidamide] | 1 to 5 µM
3 | CC(C)n1nc(S(N)(=O)=NC(=O)Nc2c3c(nc4c2CCC4(C)C)CCC3)cc1C(C)(C)O (single isomer, unassigned) [Compound 615b, (R) or (S)-N′-((3,3-dimethyl-1,2,3,5,6,7-hexahydrodicyclopenta [b,e]pyridin-8-yl)carbamoyl)-5-(2-hydroxypropan-2-yl)-1-isopropyl-1H-pyrazole-3-sulfonimidamide] | 1 to 5 µM
4 | Cc1c(C(F)(F)F)nc2c(c1NC(=O)N=S(N)(=O)c1cnn(C(F)F)c1)CCC2 (single isomer, unassigned) [Compound 617a, (R) or (S)-1-(Difluoromethyl)-N′-((3-methyl-2-(trifluoromethyl)-6,7-dihydro-5H-cyclopenta[b]pyridin-4-yl)carbamoyl)-1H-pyrazole-4-sulfonimidamide] | 5 to 30 µM

Same assay, conditions: Homo sapiens, THP-1, Table B2; 2% fetal bovine serum; numeric bounds; read-out: hTHP-1 IC50

Row | Structure (SMILES) | IC50
5 | Cc1c(C(F)(F)F)nc2c(c1NC(=O)N=S(N)(=O)c1cnc(C(C)(O)CO)s1)CCC2 (single isomer, unassigned) [Compound 605d, (R, S) and (S, S) or (R, R) and (S, R)-2-(l,2-Dihydroxypropan-2-yl)-N′-((3-methyl-2-(trifluoromethyl)-6,7-dihydro-5H-cyclopenta[b]pyridin-4-yl)carbamoyl) thiazole-5-sulfonimidamide] | > 30 µM
6 | CC(C)(O)c1csc(S(N)(=O)=NC(=O)Nc2cc(CC(F)(F)F)nc3c2CCC3)c1 (single isomer, unassigned) [Compound 607a, (S) or (R)-4-(2-Hydroxypropan-2-yl)-N′-((2-(2,2,2-trifluoroethyl)-6,7-dihydro-5H-cyclopenta[b]pyridin-4-yl)carbamoyl) thiophene-2-sulfonimidamide] | > 30 µM
7 | Cc1c(C2CC2)nc(C2CC2)c(C)c1NC(=O)N=S(N)(=O)c1cc(C(C)(C)O)cs1 (single isomer, unassigned) [Compound 612a, (S) or (R)-N′-((2,6-dicyclopropyl-3,5-dimethylpyridin-4-yl)carbamoyl)-4-(2-hydroxypropan-2-yl)thiophene-2-sulfonimidamide] | > 30 µM
8 | CC(C)n1nc(S(N)(=O)=NC(=O)Nc2c3c(nc4c2CCC4(C)C)CCC3)cc1C(C)(C)O (single isomer, unassigned) [Compound 615a, (S) or (R)-N′-((3,3-dimethyl-1,2,3,5,6,7-hexahydrodicyclopenta [b,e]pyridin-8-yl)carbamoyl)-5-(2-hydroxypropan-2-yl)-1-isopropyl-1H-pyrazole-3-sulfonimidamide] | > 30 µM
9 | Cc1c(C(F)(F)F)nc2c(c1NC(=O)N=S(N)(=O)c1cnn(C(F)F)c1)CCC2 (single isomer, unassigned) [Compound 617b, (S) or (R)-1-(Difluoromethyl)-N′-((3-methyl-2-(trifluoromethyl)-6,7-dihydro-5H-cyclopenta[b]pyridin-4-yl)carbamoyl)-1H-pyrazole-4-sulfonimidamide] | > 30 µM

Same assay, conditions: Table B2; 2% fetal bovine serum; class symbols; read-out: hTHP-1 IC50

Row | Structure (SMILES) | IC50
10 | Cc1c(C(F)(F)F)nc2c(c1NC(=O)N=S(N)(=O)c1cnc(C(C)(O)CO)s1)CCC2 (single isomer, unassigned) [Compound 605b, (R, R) and (S, R) or (R, S) and (S, S)-2-(l,2-Dihydroxypropan-2-yl)-N′-((3-methyl-2-(trifluoromethyl)-6,7-dihydro-5H-cyclopenta[b]pyridin-4-yl)carbamoyl) thiazole-5-sulfonimidamide] | 0.2 to 1 µM
11 | Cc1c(C(F)(F)F)nc2c(c1NC(=O)N=S(N)(=O)c1cnc(C(C)(O)CO)s1)CCC2 (single isomer, unassigned) [Compound 605c] | 0.2 to 1 µM
12 | Cc1c(C(F)(F)F)nc2c(c1NC(=O)N=S(N)(=O)c1cnc(C(C)(O)CO)s1)CCC2 (single isomer, unassigned) [Compound 605e, (R, S) or (S, S)-2-(1,2-Dihydroxypropan-2-yl)-N′-((3-methyl-2-(trifluoromethyl)-6,7-dihydro-5H-cyclopenta[b]pyridin-4-yl)carbamoyl) thiazole-5-sulfonimidamide] | 5 to 30 µM
13 | Cc1c(C(F)(F)F)nc2c(c1NC(=O)N=S(N)(=O)c1cnc(C(C)(O)CO)s1)CCC2 (single isomer, unassigned) [Compound 605g, (S, S) or (R, S)-2-(1,2-Dihydroxypropan-2-yl)-N′-((3-methyl-2-(trifluoromethyl)-6,7-dihydro-5H-cyclopenta[b]pyridin-4-yl)carbamoyl) thiazole-5-sulfonimidamide] | 5 to 30 µM
14 | Cc1c(C(F)(F)F)nc2c(c1NC(=O)N=S(N)(=O)c1cnc(C(C)(O)CO)s1)CCC2 (single isomer, unassigned) [Compound 605h, (S, R) or (R, R)-2-(1,2-Dihydroxypropan-2-yl)-N′-((3-methyl-2-(trifluoromethyl)-6,7-dihydro-5H-cyclopenta[b]pyridin-4-yl)carbamoyl) thiazole-5-sulfonimidamide] | 0.2 to 1 µM
15 | Cc1c(C(F)(F)F)nc2c(c1NC(=O)N=S(N)(=O)c1cnc(C(C)(C)O)s1)CCC2C (single isomer, unassigned) [Compound 608c] | 0.2 to 1 µM
16 | CCc1c(C(F)(F)F)nc2c(c1NC(=O)N=S(N)(=O)c1cnc(C(C)(C)O)s1)CCC2 (single isomer, unassigned) [Compound 610a, (R) or (S)-N′-((3-ethyl-2-(trifluoromethyl)-6,7-dihydro-5H-cyclopenta[b]pyridin-4-yl)carbamoyl)-2-(2-hydroxypropan-2-yl)thiazole-5-sulfonimidamide] | 1 to 5 µM
17 | CCc1c(C(F)(F)F)nc2c(c1NC(=O)N=S(N)(=O)c1cnc(C(C)(C)O)s1)CCC2 (single isomer, unassigned) [Compound 610b, (S) or (R)-N′-((3-ethyl-2-(trifluoromethyl)-6,7-dihydro-5H-cyclopenta[b]pyridin-4-yl)carbamoyl)-2-(2-hydroxypropan-2-yl)thiazole-5-sulfonimidamide] | 5 to 30 µM
18 | CCc1c(C(F)(F)F)nc2c(c1NC(=O)N=S(N)(=O)c1sc(C(C)(C)O)cc1F)CCC2 (single isomer, unassigned) [Compound 611a, (S) or (R)-N′-((3-ethyl-2-(trifluoromethyl)-6,7-dihydro-5H-cyclopenta[b]pyridin-4-yl)carbamoyl)-3-fluoro-5-(2-hydroxypropan-2-yl)thiophene-2-sulfonimidamide] | 5 to 30 µM
19 | CCc1c(C(F)(F)F)nc2c(c1NC(=O)N=S(N)(=O)c1sc(C(C)(C)O)cc1F)CCC2 (single isomer, unassigned) [Compound 611b, (R) or (S)-N′-((3-ethyl-2-(trifluoromethyl)-6,7-dihydro-5H-cyclopenta[b]pyridin-4-yl)carbamoyl)-3-fluoro-5-(2-hydroxypropan-2-yl)thiophene-2-sulfonimidamide] | 0.2 to 1 µM
20 | CC(C)(O)c1sc(S(N)(=O)=NC(=O)Nc2c3c(nc4c2CCC4(C)C)CCC3)cc1F (single isomer, unassigned) [Compound 613a, (R) or (S)-N′-((3,3-dimethyl-1,2,3,5,6,7-hexahydrodicyclopenta [b,e]pyridin-8-yl)carbamoyl)-4-fluoro-5-(2-hydroxypropan-2-yl)thiophene-2-sulfonimidamide] | 0.04 to 0.2 µM
21 | CC(C)(O)c1sc(S(N)(=O)=NC(=O)Nc2c3c(nc4c2CCC4(C)C)CCC3)cc1F (single isomer, unassigned) [Compound 613b, -N′-((3,3-dimethyl-1,2,3,5,6,7-hexahydrodicyclopenta [b,e]pyridin-8-yl)carbamoyl)-4-fluoro-5-(2-hydroxypropan-2-yl)thiophene-2-sulfonimidamide] | 1 to 5 µM
22 | CC(C)(O)c1sc(S(N)(=O)=NC(=O)Nc2c3c(nc4c2CCC42CC2)CCC3)cc1F (single isomer, unassigned) [Compound 614a, (R) or (S)-4-Fluoro-5-(2-hydroxypropan-2-yl)-N′-((1′,5′,6′,7′-tetrahydro-2′H-spiro[cyclopropane-1,3′-dicyclopenta[b,e]pyridin]-8′-yl)carbamoyl) thiophene-2-sulfonimidamide] | 0.04 to 0.2 µM
23 | CC(C)(O)c1sc(S(N)(=O)=NC(=O)Nc2c3c(nc4c2CCC42CC2)CCC3)cc1F (single isomer, unassigned) [Compound 614b, (S) or (R)-4-Fluoro-5-(2-hydroxypropan-2-yl)-N′-((1′,5′,6′,7′-tetrahydro-2′H-spiro[cyclopropane-1,3′-dicyclopenta[b,e]pyridin]-8′-yl)carbamoyl) thiophene-2-sulfonimidamide] | 1 to 5 µM
24 | C[C@@H]1CCc2c1nc1c(c2NC(=O)N=S(N)(=O)c2cc(F)c(C(C)(C)O)s2)CCC1 (single isomer, unassigned) [Compound 616a, (R) or (S)-4-Fluoro-5-(2-hydroxypropan-2-yl)-N′-(((R)-3-methyl-1,2,3,5,6,7-hexahydrodicyclopenta [b,e]pyridin-8-yl)carbamoyl) thiophene-2-sulfonimidamide] | 0.04 to 0.2 µM
25 | C[C@@H]1CCc2c1nc1c(c2NC(=O)N=S(N)(=O)c2cc(F)c(C(C)(C)O)s2)CCC1 (single isomer, unassigned) [Compound 616b, (S) or (R)-4-Fluoro-5-(2-hydroxypropan-2-yl)-N′-(((R)-3-methyl-1,2,3,5,6,7-hexahydrodicyclopenta [b,e]pyridin-8-yl)carbamoyl) thiophene-2-sulfonimidamide] | 5 to 30 µM
